Results taken from the supplement of paper PMC10307832.

Experiments:
Assay in all cases: relative viability (nuclei count vs DMSO), 5 days (fraction); higher = more cells survive
[1] = compound: CN(c1ncccc1CNc1nc(Nc2ccc3c(c2)CC(=O)N3)ncc1C(F)(F)F)S(C)(=O)=O + COc1cc2c(Oc3ccc(NC(=O)C4(C(=O)Nc5ccc(F)cc5)CC4)cc3F)ccnc2cc1OCCCN1CCOCC1 [Foretinib] (partner 0.25 µM)
How it was run: (§1)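 Nuclei were stained with Hoechst during a one-step fixation (final 0.05% Triton X-100, 1% formaldehyde, 1 ug/ml Hoechst) carried out 5 days after dosing, then counted on 4× images. The cells, lung cancer lines in 1536-well plates, had been dosed by pin tool the day after seeding with one drug alone or a fixed anchor-drug dose plus five library-drug doses (not always all listed) in √10 steps. Relative viability is the nuclei count in treated wells divided by that in vehicle wells, and each value is the median of duplicate plates.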

[2] = compound: CN(c1ncccc1CNc1nc(Nc2ccc3c(c2)CC(=O)N3)ncc1C(F)(F)F)S(C)(=O)=O + CS(=O)(=O)N1CCN(Cc2cc3nc(-c4cccc5[nH]ncc45)nc(N4CCOCC4)c3s2)CC1 [Pictilisib] (partner 1 µM)
How it was run: as §1

[3] = compound: CN(c1ncccc1CNc1nc(Nc2ccc3c(c2)CC(=O)N3)ncc1C(F)(F)F)S(C)(=O)=O + CC(C)C[C@H](NC(=O)[C@H](Cc1ccccc1)NC(=O)c1cnccn1)B(O)O [Bortezomib] (partner 0.002 µM)
How it was run: as §1

[4] = compound: CN(c1ncccc1CNc1nc(Nc2ccc3c(c2)CC(=O)N3)ncc1C(F)(F)F)S(C)(=O)=O + CC(=O)c1c(C)c2cnc(Nc3ccc(N4CCNCC4)cn3)nc2n(C2CCCC2)c1=O [Palbociclib] (partner 0.5 µM)
How it was run: as §1

| Cell Line | relative viability ([1]; first compound 0.01 µM) | relative viability ([1]; first compound 0.03162 µM) | relative viability ([1]; first compound 0.1 µM) | relative viability ([1]; first compound 0.3162 µM) | relative viability ([1]; first compound 1 µM) | relative viability ([2]; first compound 0.01 µM) | relative viability ([2]; first compound 0.03162 µM) | relative viability ([2]; first compound 0.1 µM) | relative viability ([2]; first compound 0.3162 µM) | relative viability ([2]; first compound 1 µM) | relative viability ([3]; first compound 0.01 µM) | relative viability ([3]; first compound 0.03162 µM) | relative viability ([3]; first compound 0.1 µM) | relative viability ([3]; first compound 0.3162 µM) | relative viability ([3]; first compound 1 µM) | relative viability ([4]; first compound 0.01 µM) | relative viability ([4]; first compound 0.03162 µM) | relative viability ([4]; first compound 0.1 µM) | relative viability ([4]; first compound 0.3162 µM) | relative viability ([4]; first compound 1 µM) |
| --- | --- | --- | --- | --- | --- | --- | --- | --- | --- | --- | --- | --- | --- | --- | --- | --- | --- | --- | --- | --- |
| HCC-78 | 0.543 | 0.571 | 0.533 | 0.562 | 0.514 | 0.228 | 0.167 | 0.216 | 0.188 | 0.165 | 0.567 | 0.587 | 0.502 | 0.462 | 0.422 | 0.419 | 0.46 | 0.462 | 0.487 | 0.408 |
| HCC-366 | 0.899 | 0.925 | 0.942 | 0.982 | 0.781 | 0.108 | 0.155 | 0.0871 | 0.197 | 0.19 | 0.927 | 1.24 | 1.09 | 1.02 | 1.06 | 0.41 | 0.391 | 0.342 | 0.336 | 0.316 |
| HCC-827 | 0.985 | 1.05 | 1.15 | 1.04 | 1.05 | 0.878 | 1.08 | 1.09 | 1.15 | 1.07 | 1.1 | 1.06 | 1.09 | 1.02 | 1.05 | 0.453 | 0.462 | 0.503 | 0.545 | 0.437 |
| HOP-62 | 1.04 | 1.16 | 0.958 | 1.02 | 1.03 | 0.784 | 0.899 | 0.793 | 0.853 | 0.643 | 0.839 | 0.673 | 0.939 | 0.803 | 0.911 | 0.469 | 0.444 | 0.374 | 0.412 | 0.39 |
| IA-LM | 1.25 | 1.17 | 0.917 | 1.27 | 0.874 | 0.348 | 0.292 | 0.309 | 0.32 | 0.276 | 0.807 | 0.886 | 0.727 | 0.877 | 0.666 | – | – | – | – | – |
| LC-2-ad | 0.851 | 0.865 | 0.967 | 0.939 | 0.933 | 0.567 | 0.552 | 0.647 | 0.928 | 0.66 | 1.04 | 1 | 1.06 | 0.961 | 0.799 | 0.523 | 0.451 | 0.522 | 0.473 | 0.463 |
| LCLC-97TM1 | 0.97 | 0.986 | 0.867 | 0.864 | 0.844 | – | 0.23 | 0.196 | 0.159 | 0.148 | 1.04 | 0.74 | 0.439 | 0.559 | 0.526 | 0.217 | 0.176 | 0.171 | 0.18 | 0.158 |
| LK-2 | 1.02 | 1.06 | 1.21 | 1.3 | 1.52 | 0.585 | 0.625 | 0.586 | 0.794 | 0.462 | – | – | – | – | – | 0.784 | 0.723 | 0.666 | 0.662 | 0.717 |
| NCI-H358 | 0.717 | 0.659 | 0.782 | 0.638 | 0.517 | 0.276 | 0.351 | 0.275 | 0.347 | 0.243 | – | – | – | – | – | 0.135 | 0.113 | 0.145 | 0.119 | 0.0943 |
| NCI-H522 | – | – | – | – | – | – | – | – | – | – | – | – | – | – | – | 1.06 | 1.01 | 1.08 | 1.15 | 0.752 |
| NCI-H596 | 0.848 | 0.859 | 0.863 | 0.806 | 0.861 | 0.409 | 0.37 | 0.428 | 0.456 | 0.37 | 0.793 | 0.973 | 0.93 | 1.1 | 1.28 | – | – | – | – | – |
| NCI-H1395 | 0.985 | 1.12 | 0.952 | 0.849 | 0.954 | 0.569 | 0.655 | 0.605 | 0.668 | 0.661 | – | – | – | – | – | 0.649 | 0.602 | 0.698 | 0.655 | 0.596 |
| NCI-H1563 | 0.996 | 0.907 | 1.04 | 0.899 | 0.863 | 0.602 | 0.629 | 0.657 | 0.722 | 0.662 | 0.906 | 0.808 | 0.849 | 0.867 | 0.876 | – | – | – | – | – |
| NCI-H1648 | – | – | – | – | – | – | – | – | – | – | – | – | – | – | – | 0.264 | 0.274 | 0.224 | 0.242 | 0.207 |
| NCI-H1703 | 0.37 | 0.3 | 0.36 | 0.332 | 0.349 | 0.266 | 0.243 | 0.248 | 0.229 | 0.235 | 0.311 | 0.295 | 0.415 | 0.481 | 0.235 | – | – | – | – | – |
| NCI-H1792 | – | – | – | – | – | 0.263 | 0.281 | 0.323 | 0.306 | 0.332 | 1.02 | 0.999 | 0.83 | 0.924 | 0.941 | 0.627 | 0.783 | 0.63 | 0.637 | 0.602 |
| NCI-H1793 | 0.58 | 0.641 | 0.667 | 0.449 | 0.523 | 0.285 | 0.393 | 0.208 | 0.319 | 0.265 | – | – | – | – | – | 0.314 | 0.321 | 0.328 | 0.341 | 0.324 |
| NCI-H1944 | 0.771 | 0.941 | 0.87 | 0.938 | 0.79 | 0.356 | 0.352 | 0.335 | 0.342 | 0.396 | – | – | – | – | – | 0.346 | 0.342 | 0.328 | 0.322 | 0.312 |
| NCI-H2170 | 1.02 | 1.02 | 1.01 | 1.02 | 0.949 | 0.355 | 0.312 | 0.316 | – | 0.332 | – | – | – | – | – | 0.422 | 0.434 | 0.39 | 0.382 | 0.388 |
| NCI-H2342 | 1.15 | 0.976 | 0.927 | 0.953 | 0.999 | – | – | – | – | – | – | – | – | – | – | 0.564 | 0.536 | 0.548 | 0.497 | 0.455 |
| SK-MES-1 | 0.905 | 0.919 | 0.817 | 1.01 | 0.868 | 0.401 | 0.322 | 0.293 | 0.311 | 0.367 | – | – | – | – | – | 0.286 | 0.298 | 0.304 | 0.296 | 0.294 |
| SW 900 | 0.796 | 0.964 | 0.872 | 0.894 | 0.566 | – | – | – | – | – | – | – | – | – | – | 0.513 | 0.48 | 0.52 | 0.52 | 0.456 |
